Each block holds one compound with its values, some of them ahead of it.
Assays:
[1] = Spontaneous Raman / hyperspectral SRS spectroscopy of probes and uncaged alkynes; type: physicochemical; details: for Raman Peak: cell silent region, model systems; for RIE (relative Raman intensity to EdU): 10 mM EdU (H2O) as standard
Description: (§1) An integrated laser (picoEMERALD, Applied Physics and Electronics, Inc.) was used as a light source for both pump and Stokes beams. It produces 2 ps pump (tunable from 770 nm - 990 nm, bandwidth 0.5 nm, spectral bandwidth ~ 7 cm-1 ) and Stokes (1031.2 nm, spectral bandwidth 10 cm-1 ) beams with 80 MHz repetition rate. Stokes beam is modulated at 20 MHz by an internal electro-optic modulator. The spatially and temporally overlapped pump and Stokes beams are introduced into an inverted multiphoton laser scanning microscopy (FV3000, Olympus), and then focused onto the sample by a 25X water objective (XLPLN25XWMP, 1.05 N.A., Olympus). Transmitted pump and Stokes beams are collected by a high N.A. condenser lens (oil immersion, 1.4 N.A., Olympus) and pass through a bandpass filter (893/209 BrightLine, 25 mm, AVR Optics) to filter out Stokes beam. A large area (10×10 mm) Si photodiode (S3590-09, Hamamatsu) is used to measure the remaining pump beam intensity. 64 V DC voltage was used on the photodiode to increase saturation threshold and reduce response time. The output current is terminated by a 50 Ω terminator and pre-filtered by an 19.2-23.6-MHz band-pass filter (BBP-21.4+, Mini-Circuits) to reduce laser and scanning noise. The signal is then demodulated by a lock-in amplifier (SR844, Stanford Research Systems) at the modulation frequency. The in-phase X output is fed back to the Olympus IO interface box (FV30-ANALOG) of the microscope. Image acquisition speed is limited by 30 µs time constant set for the lock-in amplifier. Correspondingly, we use 80 µs pixel dwell time, which gives a speed of 8.5 s frame-1 for a 320-by-320-pixel field of view. Laser powers are monitored through image acquisition by an internal power meter and power fluctuation are controlled within 5% by the laser system. 16-bit grey scale images are acquired by Fluoview software. SRS spectra were acquired by fixing the Stokes beam at 1031.2 nm and scanning the pump beam through the designated wavelength range point by point. 10 mM EdU (H2O) sample was used as a standard to give RIE of different probes. Fluorescence images were collected using the same Olympus FV3000 confocal microscope with CW laser excitation (405, 488, 561 and 640 nm, Coherent OBIS LX laser) and standard bandpass filter sets. The correlation coefficients (Pearson’s R value) between SRS images and fluorescence images were calculated using ‘Coloc 2’ tool of ImageJ.
To perform spontaneous Raman spectroscopy, spontaneous Raman spectra were acquired using an upright confocal Raman spectrometer (Horiba Raman microscope; Xplora plus). A 532 nm YAG laser is used to illuminate the sample with a power of 12 mW on sample through a 100 x, N.A. 0.9 objective (MPLANN; Olympus) with 100 µm slit and 500 µm hole. Spectro/Raman shift center was set to be 2000.04 cm-1 . With a 1200 grating, Raman shift ranges from 690.81 cm-1 to 3141.49 cm-1 was acquired to cover whole biological relevant Raman peaks. The acquired spectra were processed by the LabSpec 6 software for baseline correction.
Cyclopropenone caging has been previously adopted for photoactivation and subsequent biorthogonal labeling of fluorophores in fluorescence microscopy. […] Herein the alkyne Raman signal generation from photo-DIBO light-activation was first measured (FIG. 1A). […] Compared to 5-ethynyl-2′-deoxyuridine (EdU), the well-adopted benchmark for Raman intensity quantification, the relative Raman intensity to EdU (RIE) of the strained alkyne DIBO is only 1.8 (Table 1). […] Given this, it is reasoned that diphenylcyclopropenone (i.e. cyclopropenone-caged 1-yne, 1-cyclo, 1, FIG. 1A) should be a better photoactivatable Raman scaffold with higher Raman sensitivity after uncaging. Indeed, UV-uncaging of 1-cyclo (1), which started from a similarly weak Raman peak at 1860 cm^-1 from photo-DIBO, produced an intense sharp peak for 1-yne (2) at 2226 cm^-1 (FIG. 1B, dashed black vs solid blue spectra) with an improved RIE values to about 4

[2] = UV-Vis absorption spectra; type: physicochemical; details: 20 uM in DMSO
Description: UV-Vis absorption spectra were recorded on a Varian Cary 50 UV-Vis Spectrophotometer (Agilent).

[3] = Photoactivation (UV-uncaging) monitored by time-series spontaneous Raman spectra; type: physicochemical
Description: The 365 nm UV light used to activate cyclopropenones comes from a UV handlamp (Analytik Jena UVP EL Series Lamp, UVLS-24, 4 Watt, 2 UV 254/365 nm, typically used for TLC monitoring in organic synthesis). The power of 365 nm UV of this handlamp was measured to be 15 mW/cm2 on samples.
Next, the photo-uncaging kinetics for both 1-cyclo (1) and 2-cyclo (3) were compared. […] With 365 nm lamp illumination, the characteristic peaks of cyclopropenones (~1860 cm^-1) continue to drop while the alkyne peaks (2226 cm^-1) gradually increase for both molecules (FIG. 1D). […] The progression of the UV-activation reactions could also be confirmed by the change in the corresponding absorption spectra (FIG. 6).

[4] = system: lipid droplets; test: Live-cell photo-uncaging lipid droplets imaging, SRS/fluorescence co-localization; type: cell-based; details: live HeLa cells, SRS vs Lipid spot 610
Description: as §1
Lipid droplets imaging by Me-LD (15): Cells were incubated in 20 µM Me-LD (15) with complete DMEM medium for 30 minutes in the incubator. Cells were washed with PBS three times before imaging. For colocalization, 0.5 x LipidSpot™ 610 (Biotium, #70069) was used to stain cells for 20 minutes. For photo-uncaging, 405 nm laser was used to scan the selected field of view for 2 minutes (1.6 mW).
Lipid droplets imaging by Cyclo-LD (17): Cells were washed with PBS for three times before labeling. Cells were then incubated in 20 µM Cyclo-LD (17) with PBS for 30 minutes in the incubator. Cells were washed with PBS three times before imaging. For colocalization, 0.5 x LipidSpot™ 610 (Biotium, #70069) was used to stain cells for 20 minutes. For photo-uncaging, 405 nm laser (1.6 mW) was used to scan the selected field of view for 2 minutes.

[5] = system: live HeLa cells; test: SRS imaging of live HeLa cells incubated with unmethylated probes before and after 405 nm illumination; type: cell-based; details: 20 µM, 30 minutes of labeling; 2226 cm^-1 channel after 405 nm
Description: FIG. 7 provides exemplary results from SRS imaging of live HeLa cells incubated with 1-cyclo (1, 20 µM, 30 minutes of labeling, top) and Cyclo-Mito (7, 20 µM, 30 minutes of labeling, bottom) at the CH3 (2940 cm^-1) channel, and the expected uncaged alkyne channel (2226 cm^-1) before and after 405 nm illumination. Scale bar: 10 µm.
An integrated laser (picoEMERALD, Applied Physics and Electronics, Inc.) was used as a light source for both pump and Stokes beams. It produces 2 ps pump (tunable from 770 nm - 990 nm, bandwidth 0.5 nm, spectral bandwidth ~ 7 cm-1 ) and Stokes (1031.2 nm, spectral bandwidth 10 cm-1 ) beams with 80 MHz repetition rate. Stokes beam is modulated at 20 MHz by an internal electro-optic modulator. […] Laser powers are monitored through image acquisition by an internal power meter and power fluctuation are controlled within 5% by the laser system. […] Fluorescence images were collected using the same Olympus FV3000 confocal microscope with CW laser excitation (405, 488, 561 and 640 nm, Coherent OBIS LX laser) and standard bandpass filter sets. The correlation coefficients (Pearson’s R value) between SRS images and fluorescence images were calculated using ‘Coloc 2’ tool of ImageJ.

[6] = system: endoplasmic reticulum; test: Live-cell photo-uncaging ER imaging, SRS/fluorescence co-localization; type: cell-based; details: live HeLa cells
Description: as §1
ER imaging: Cells were incubated in 40 µM Me-ER (14) with complete DMEM medium for 2 hours in the incubator. Cells were washed with PBS three times before imaging. For colocalization, 0.5 µM ER-Tracker™ Red (Invitrogen, E34250) was used to stain cells for 1 hour. For photo-uncaging, 405 nm laser was used to scan the selected field of view for 2 minutes (1.6 mW).

[7] = system: lysosomes; test: Live-cell photo-uncaging lysosomes imaging, SRS/fluorescence co-localization; type: cell-based
Description: as §1
Lysosomes imaging: Cells were incubated in 30 µM Me-Lyso (13) with complete DMEM medium for 2 hours in the incubator. Cells were washed with PBS three times before imaging. For colocalization, 0.4 x LysoView™ 488 (Biotium, #70067) was used to stain cells for 30 minutes. For photo-uncaging, 405 nm laser was used to scan the selected field of view for 2 minutes (1.6 mW).

[8] = system: mitochondria; test: Live-cell photo-uncaging mitochondria imaging, SRS/fluorescence co-localization; type: cell-based; details: live HeLa cells
Description: as §1
Mitochondria imaging: Cells were incubated in 16 µM Me-Mito (12) or Me-Mito^13C (16) with complete DMEM medium for 40 minutes in the incubator. Cells were washed with PBS three times before imaging. For colocalization, 80 nM MitoTracker™ Deep Red (Invitrogen, M22426) was used to stain cells for 25 minutes. […]

[9] = (HP)LC-MS for assessing the stability of cyclopropenone probes in physiological condition; type: physicochemical; details: 10 mM cysteine (PBS), 37° C., HPLC trace
Description: The assessed probe was first dissolved in DMSO and later diluted in 10 mM cysteine (Sigma, 168149, dissolved in PBS) solution or DMEM (Corning, 35-015-CV) medium. Analytical HPLC coupled with mass spectrometry (LC-MS) was performed on Agilent 1290 infinity LC system using ZORBAX RRHD Eclipse Plus C18, 95 Å, 2.1 x 50 mm, 1.8 µm column with Agilent 6140 Series Quadrupole LCMS / LC-MS / MSD / Mass Spectrometer System. The mobile phase is water (0.1% AcOH) and acetonitrile with running method of gradient 5%-95% acetonitrile (1 ml/min, 4 min for total running time). The mass spectrometry detection region ranges from 100 to 800 AMU. The data shown in the main figures and supplementary figures are the absorption (280.8 nm) intensity traces.
It was hypothesized that this was likely because the cyclopropenone structures are susceptible to nucleophilic attack, leading to ring-opened α,β-unsaturated acids derivatives. Cysteines, glutathione, and other biological thiols are strong nucleophiles and could easily deactivate cyclopropenones. The stability of 1-cyclo (1) in 10 mM cysteine phosphate-buffered saline (PBS) at 37° C. was therefore tested, mimicking physiological conditions.

[10] = SRS vs ER tracker red, Fl/2205 cm^-1 channel
[11] = live HeLa cells, SRS vs Lysoview 488, Fl/2205 cm^-1 channel
[12] = SRS vs Mitotracker deep red, Fl/2225 cm^-1 channel

Compound: O=c1c(-c2ccccc2)c1-c1ccc(OCCOCCOCCCCCCCl)cc1 [Cyclo-LD (17), 2-(4-(2-(2-((6-chlorohexyl)oxy)ethoxy)ethoxy)phenyl)-3-phenylcycloprop-2-en-1-one]
correlation coefficient (Pearson's R value), set 1 ([4]; Fl/2226 cm^-1 channel): 0.50 | correlation coefficient (Pearson's R value), set 2 ([4]; Fl/2226 cm^-1 channel): 0.76

Compound: O=c1c(-c2ccccc2)c1-c1ccc(OCCC[P+](c2ccccc2)(c2ccccc2)c2ccccc2)cc1.[Br-] [Cyclo-Mito (7)]
uncaging signals in labeled live cells [5]: did not produce any observable uncaging signals

Compound: Cc1ccc(S(=O)(=O)NCCCOc2cc(C)c(-c3c(-c4c(C)cc(C)cc4C)c3=O)c(C)c2)cc1 [Me-ER (14)]
targeting, photoactivation and imaging performances [6]: highly specific targeting | correlation coefficient (Pearson's R value), set 1 [6, 10]: 0.86 | correlation coefficient (Pearson's R value), set 2 [6, 10]: 0.80 | correlation coefficient (Pearson's R value), set 3 [6, 10]: 0.90

Compound: Cc1cc(C)c(-c2c(-c3c(C)cc(OCCOCCOCCCCCCCl)cc3C)c2=O)c(C)c1 [Me-LD (15)]
correlation coefficient (Pearson's R value), set 1 ([4]; Fl/2205 cm^-1 channel): 0.54 | correlation coefficient (Pearson's R value), set 2 ([4]; Fl/2205 cm^-1 channel): 0.54 | correlation coefficient (Pearson's R value), set 3 ([4]; Fl/2205 cm^-1 channel): 0.50

Compound: Cc1cc(C)c(-c2c(-c3c(C)cc(OCCN(C)C)cc3C)c2=O)c(C)c1 [Me-Lyso (13)]
correlation coefficient (Pearson's R value), set 1 [7, 11]: 0.60 | correlation coefficient (Pearson's R value), set 2 [7, 11]: 0.67 | correlation coefficient (Pearson's R value), set 3 [7, 11]: 0.62 | lysosomes targeting (co-localization) ([7]; live cells co-labeled with Lysoview 488): desired co-localization

The next lines start with results.

Raman Peak [1]: 2226 cm⁻¹ | Abs [2]: 283 nm | εabs [2]: 32300 M⁻¹ cm⁻¹
Compound: C(#Cc1ccccc1)c1ccccc1 [1-yne (2), diphenylacetylene]

RIE (relative Raman intensity to EdU) [1]: 7.5 | Raman Peak [1]: 2218 cm⁻¹ | Abs [2]: 324 nm | εabs [2]: 32400 M⁻¹ cm⁻¹
Compound: O=c1c(C#Cc2ccccc2)c1-c1ccccc1 [2-cyclo (3), 2-phenyl-3-(phenylethynyl)cycloprop-2-en-1-one]
uncaging kinetics k ([3]; 365 nm illumination (15 mW/cm^2), increase of alkyne peak 2226 cm^-1): 0.020 s⁻¹ | uncaging kinetics, fold faster than 1-cyclo (1) ([3]; 365 nm lamp illumination): about 5 fold

RIE (relative Raman intensity to EdU) [1]: 13 | Raman Peak [1]: 2194 cm⁻¹ | Abs [2]: 371 nm | εabs [2]: 25500 M⁻¹ cm⁻¹
Compound: O=c1c(C#Cc2ccccc2)c(C#Cc2ccccc2)c1=O [3-cyclo (5), 3,4-Bis(phenylethynyl)-3-cyclobutene-1,2-dione]

alkyne Raman peak / SRS channel after uncaging ([1]; organelle probes after UV / 405 nm uncaging): 2205 cm⁻¹ | time stable to cysteine [9]: over 48 hours
Compound: Cc1cc(C)c(-c2c(-c3c(C)cc(OCCC[P+](c4ccccc4)(c4ccccc4)c4ccccc4)cc3C)c2=O)c(C)c1 [Me-Mito (12)]
correlation coefficient (Pearson's R value), set 1 [8, 12]: 0.85 | correlation coefficient (Pearson's R value), set 2 [8, 12]: 0.82 | correlation coefficient (Pearson's R value), set 3 [8, 12]: 0.88 | SRS imaging at the alkyne channel after photoactivation ([8]; two minutes of 405 nm laser illumination, 2205 cm^-1): bright mitochondria pattern

time stable to cysteine [9]: ≥ 24 h
Compound: Cc1cc(C)c(-c2c(-c3c(C)cc(O)cc3C)c2=O)c(C)c1 [compound 8]

RIE (relative Raman intensity to EdU) [1]: 1.8 | Raman Peak [1]: 2171 cm⁻¹ | Abs [2]: 323 nm | εabs [2]: 24200 M⁻¹ cm⁻¹
Compound: dibenzocyclooctynes [DIBO, reference compound]

Source: patent publication US20230280275A1, “PHOTOACTIVATABLE VIBRATIONAL PROBES AND USES THEREOF” (California Institute of Technology, priority 2021, published 2023)
